US5519000A, “Tumor necrosis factor inhibitors” (Centecor, Inc., priority 1994, dated 1996)
No end group written: not given here.

The substances below were run against T1, human TNFα (Homo sapiens, UniProt P01375) (assay: p55 receptor/IgG fusion protein binding assay (inhibition of TNFα capture by p55-Ig coated plate)). Conditions: human recombinant TNFα 25 ng/ml preincubated with peptide; relative to TNFα in the absence of peptide; read-out: IC50 (concentration necessary to inhibit TNFα by 50%), inhibition of binding of TNFα to p55TNFr-IgG chimeric construct.
T1 construct: purchased Biosource, Camarillo, Calif
T1 sequence (P01375 77-233 limits assumed): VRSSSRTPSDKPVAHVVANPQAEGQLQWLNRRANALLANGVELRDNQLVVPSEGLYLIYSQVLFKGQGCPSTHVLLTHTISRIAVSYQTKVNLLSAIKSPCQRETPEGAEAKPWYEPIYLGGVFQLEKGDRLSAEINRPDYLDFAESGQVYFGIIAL
Protocol: In order to screen compounds for their ability to block TNFα binding to the TNF p55 receptor, an assay has been designed using TNFα and a p55/IgG fusion protein in place of monovalent, non-fusion p55 TNF receptor protein. This assay was designed to identify peptides which bind to human TNFα and thereby prevent the capture of the TNFα by a microtiter plate coated with p55-Ig fusion protein. A constant concentration of human TNFα is preincubated with the test peptide and then incubated on the p55-Ig coated microtiter wells. Bound TNFα is detected using a specific antisera and an alkaline phosphatase-conjugated probe. An active peptide will reduce the amount of human TNFα bound to the well relative to control wells in which TNFα but no peptide was added.
A 96-well, U-bottom polyvinylchloride microtiter plate was coated with 50 μl/well of p55-Ig fusion protein at 5 μg/ml in 0.01M sodium phosphate, 0.15M sodium chloride (PBS) by incubation overnight at 4° C. or 2 hours at 37° C. The fusion protein, which consists of a p55 TNF receptor protein portion and an IgG portion, can be produced as disclosed in U.S. application Ser. No. 08/010,406 filed Jan. 29, 1993 which is incorporated herein by reference. The plate was washed three times with 0.05% Tween-20 in PBS, then blocked, by adding 150 μl/well of assay buffer (10 mM N-2-hydroxyethylpiperazine-N'-[…] (HEPES) pH 7.2, containing 0.1% porcine gelatin, 0.1% Tween-80, and 0.01% sodium azide) and continuing incubation for 1 hour at 37° C. or at 4° C. for 1-7 days.
Lyophilized peptides to be tested were weighed in tared 12×75 mm polystyrene tubes and reconstituted to a concentration of 1.2 mM with assay buffer. Each suspension was sonicated in a water bath for 1-5 minutes and vortexed 15-30 seconds to disperse large particles. Serial dilutions of each peptide suspension were prepared using assay buffer in a 96-well polystyrene microtiter plate. Additional wells received Fab fragment of the mouse/human monoclonal anti-human TNFα antibody cA2 (positive control) or assay buffer (negative control). […] The polystyrene dilution plate was then sealed and incubated 1 hour at room temperature on an orbital mixer set at moderate speed.
Following the sample preincubation, blocker was discarded from the p55-Ig coated plate and blotted dry. Aliquots (50 μl) of each peptide or control were transferred into duplicate wells on the p55-Ig coated plate which was then sealed and incubated 1 hour at 37° C. Duplicate wells containing only assay buffer were included as a plate blank. After incubation the p55-Ig plate was washed three times with 0.05% Tween-20 in PBS.
To detect TNFα captured by the p55-Ig plate, all wells were incubated in succession with polyclonal rabbit anti-human TNFα (Genzyme, Boston, Mass.; 1:500 in assay buffer, 50 μl/well), biotinylated goat anti-rabbit Ig (H&L) (Vector Laboratories, Burlingame, Calif.; 1 μg/ml in assay buffer, 50 μl/well) and streptavidin-alkaline phosphatase conjugate (Pierce, Rockford, Ill.; 1 μg/ml in assay buffer, 50 μl/well). All incubations were for 1 hour at 37° C. and after each incubation the plate was washed three times with 0.05% Tween-20 in PBS. Fifty microliters of alkaline phosphatase substrate solution (alkaline buffer (Sigma, St. Louis, Mo.) diluted 1:500 in deionized water plus one 5 mg tablet of p-nitrophenyl phosphate (Sigma, St. Louis, Mo.) per 5 ml of diluted buffer) was added to all wells and incubation continued for 20 minutes at room temperature. Color development was stopped by adding to all wells 50 μl of 3N sodium hydroxide. The optical density (OD) at 405 nm was measured on a microtiter plate reader (Molecular Devices Vmax plate reader), with the plate blank wells subtracted as background. The activity of each peptide was then expressed as the percent inhibition of TNFα capture by the p55-Ig plate, relative to the amount of TNFα captured in wells containing only assay buffer (negative control), as follows: […]

Row | Substance | IC50 [µM]
1 | RQSPEKGLEWVAEIRSKSI-NH2 [SEQ ID NO:4, Arginyl-glutaminyl-seryl-prolyl-glutamyl-lysyl-glycyl-leucyl-glutamyl-tryptophyl-valyl-alanyl-glutamyl-isoleucyl-arginyl-seryl-lysyl-seryl-isoleucine- amide] | 1020
2 | Ac-DILLTQSPAILSVSPGERVSFS-NH2 [SEQ ID NO:6, Acetyl-aspartyl-isoleucyl-leucyl-leucyl-threonyl-glutaminyl-seryl-prolyl-alanyl-isoleucyl-leucyl-seryl-valyl-seryl-prolyl-glycyl-glutamyl-arginyl-valyl-seryl-phenylalanyl-serine-amide] | 2530
3 | Ac-TDLRTEDTGVYYCSRNYYGSTY-NH2 [SEQ ID NO:5, Acetyl-threonyl-aspartyl-leucyl-arginyl-threonyl-glutamyl-aspartyl-threonyl-glycyl-valyl-tyrosyltyrosyl-cysteinyl-seryl-arginyl-asparaginyl-tyrosyl-tyrosyl-glycyl-seryl-threonyl-tyrosine-amide] | 1130
4 | Ac-YYSQQSHSWPFTF-NH2 [SEQ ID NO:7, Acetyl-tyrosyl-tyrosyl-seryl-glutaminyl-glutaminyl-seryl-histidyl-seryl-tryptophyl-prolyl-phenylalanyl-threonyl-phenylalanine-amide] | 1080
5 | Ac-FSNHWMNWVR-NH2 [SEQ ID NO:2, Acetyl-phenylalanyl-seryl-asparaginyl-histidyl-tryptophyl-methtonyl-asparaginyl-tryptophyl-valyl-arginine-amide] | 410

Continued, values first:

Row | IC50 [µM] | Substance
6 | 1110 | Ac-INTVESEDIADYYCQQSHSW-NH2 [SEQ ID NO:8, Acetyl-isoleucyl-asparaginyl-threonyl-valyl-glutamyl-seryl-glutamyl-aspartyl-isoleucyl-alanyl-aspartyl-tyrosyl-tyrosyl-cysteinyl-glutaminyl-glutaminyl-seryl-histidyl-seryl-tryptophan-amide]
7 | 60 | Ac-FSNHWMNW-NH2 [SEQ ID NO:9, Acetyl-phenylalanyl-seryl-asparaginyl-histidyl-tryptophyl-methionyl-asparaginyl-tryptophan-amide]
8 | 290 | Ac-YAESVKGRFTISRDDSKSAVYL-NH2 [SEQ ID NO:3, Acetyl-tyrosyl-alanyl-glutamyl-seryl-valyl-lysyl-glycyl-arginyl-phenylalanyl-threonyl-isoleucyl-seryl-arginyl-aspartyl-aspartyl-seryl-lysyl-seryl-alanyl-valyl-tyrosyl-leucine-amide]
9 | 1880 | Ac-LIKYASQSMSGI-NH2 [SEQ ID NO:1, Acetyl-leucyl-tsoleucyl-lysyl-tyrosyl-alanyl-seryl-glutaminyl-seryl-methionyl-seryl-glycyl-isoleucine-amide]
